For one test, the system named is M. intracellulare 13950. Nature of the test: Time to detection (TTD) of growth in BacT/ALERT MP culture bottles. Type of test: cell-based, Mycobacterium intracellulare. Particulars: for # Positive: of 4.0 tested.
In another test the test system is M. avium 25291. Described as above. In kind it is cell-based, Mycobacterium avium. Particulars: for # Positive: of 4.0 tested.
In a further test the test system is MTB 25177. Described as above. In kind it is cell-based, Mycobacterium tuberculosis. Particulars: for # Positive: of 4.0 tested. The procedure:
For Growth Performance, […] organisms (M. tuberculosis, M. avium, and M. intracellulare) were tested. The conventional MAS formulation was used for these experiments. The new supplement with/without FA supplementation and conventional/old RF were used to rehydrate a lyophilized powder of the conventional or old MB BacT antibiotic supplement (conventional/old MAS) (bioMérieux, Inc.).
For the new supplement, the new, autoclavable BacT/ALERT® MP bottle (as described hereinabove) was used and for conventional/old RF, the conventional/old MP bottle was used. Before the inoculation of new and conventional/old MP culture bottles (bioMérieux, Inc.) with mycobacteria cultures, 0.5 ml of new supplement with/without FA or 0.5 ml of conventional/old RF were added to one set of the BacT/ALERT® MP culture bottles. The rehydrated conventional MAS (using new supplement with/without FA and conventional/old RF) was added to the second set of MP culture bottles. The growth (as TTD of growth) was compared in these bottles for Mycobacterium avium, Mycobacterium intracellulare and Mycobacterium tuberculosis cultures after inoculating with approximately 0.5×10^3 CFU/ml.
For the new MAS formulas and NS, a new, autoclaved BacT/ALERT® MP bottle (as described hereinabove) was used and for conventional/old RF, conventional/old MP bottle (bioMérieux, Inc.) was used. […] The conventional MAS (using conventional/old RF) and new MAS formulas (using NS) were added to the second set of MP culture bottles.
The mycobacteria inoculum was 0.5×10^3 CFU/ml.

For a further test, the system named is M. scrofulaceum 19981. The description is as above. Type of test: cell-based, Mycobacterium scrofulaceum.
The subject of another test is MTB 27294. The description is as above. Type of test: cell-based, Mycobacterium tuberculosis. Particulars: for # Positive: of 4.0 tested.
In the next test the test system is mycobacteria. Type of test: cell-based, Mycobacterium species.
In another test the test system is M. kansasii 12478. Nature of the test: Time to detection (TTD) of growth in BacT/ALERT MP culture bottles. In kind it is cell-based, Mycobacterium kansasii. The following applies: for # Positives / # Positive: of 4.0 tested.
The next test concerns M. fortuitum 6841. The description is as above. Particulars: for # Positives / # Positive: of 4.0 tested.
The subject of test [1] is contaminating respiratory flora (CRF). Nature of the test: Suppression of contaminating respiratory flora (CRF), growth or no growth in BacT/ALERT MP culture bottles. Type of test: cell-based, gram positive or gram negative bacterial and yeast cultures. The following applies: screen of various drugs.

Molecules are shown by their SMILES. Values joined by “and” are separate entries in the source; they are usually repeats but may differ in a detail not shown here. Identical values can stand only once. Like-named read-outs stand apart in the source and are kept apart here.

The record followed here is patent US8389268B2, “Method and culture medium for enhanced detection of mycobacterium” (priority 2009, dated 2013).

`CN[C@H](CC(C)C)C(=O)N[C@H]1C(=O)N[C@@H](CC(N)=O)C(=O)N[C@H]2C(=O)N[C@H]3C(=O)N[C@H](C(=O)N[C@H](C(=O)O)c4cc(O)cc(O)c4-c4cc3ccc4O)[C@H](O)c3ccc(c(Cl)c3)Oc3cc2cc(c3O[C@@H]2O[C@H](CO)[C@@H](O)[C@H](O)[C@H]2O[C@H]2C[C@](C)(N)[C@H](O)[C@H](C)O2)Oc2ccc(cc2Cl)[C@H]1O` [VAN, vancomycin]: the “# Positives” value is 4.0 in the test with M. intracellulare 13950; 4.0 and 3.0 in the test with M. avium 25291; 2.0 with MTB 25177; 4.0 in the test with M. scrofulaceum 19981 (Table 5, Media + VAN 1.75, of 4.0 tested); 4.0 in the test on M. scrofulaceum 19981 (Table 5, Media + VAN 3.5, of 4.0 tested); 1.0 in the test with M. scrofulaceum 19981 (Table 5, Media + VAN 7, of 1.0 tested). The “# Positives” value with MTB 27294 is given as 4.0; in the test on M. kansasii 12478 (Table 5, Media + VAN 1.75), 4.0; with M. kansasii 12478 (Table 5, Media + VAN 3.5), 2.0; with M. fortuitum 6841 (Table 5, Media + VAN 1.75), 4.0; in the test on M. fortuitum 6841 (Table 5, Media + VAN 3.5) it was 4.0; in the test on M. fortuitum 6841 (Table 5, Media + VAN 7), 4.0. The “Average TTD” value was 9.4 days and 9.7 days and 10.3 days in the test on M. intracellulare 13950; 20.6 days and 21.2 days with M. avium 25291; 23.7 days in the test with MTB 25177; 14.2 days in the test on M. scrofulaceum 19981 (Table 5, Media + VAN 1.75); 14.0 days in the test with M. scrofulaceum 19981 (Table 5, Media + VAN 3.5); 15.3 days with M. scrofulaceum 19981 (Table 5, Media + VAN 7). In addition, the “Average TTD” value in the test with MTB 27294 is 16.3 days and 16.0 days and 18.3 days; with M. kansasii 12478 (Table 5, Media + VAN 3.5), 21.5 days; with M. fortuitum 6841 (Table 5, Media + VAN 1.75) it was 4.7 days; in the test on M. fortuitum 6841 (Table 5, Media + VAN 3.5), 4.1 days; in the test on M. fortuitum 6841 (Table 5, Media + VAN 7) it was 4.8 days. Moreover, the “effect on growth (as determined by TTD of growth)” value in the test with mycobacteria is recorded as “negative effect on the growth”.
In the case of `O=C(O)C[C@H](O)C(=O)O` [L-malate], in the test on mycobacteria, the “reduction in TTD” value is “did not show a reduction in TTD”.
On to `C[C@@H]1O[C@@H]1P(=O)(O)O` [fosfomycin], for which the “ability to suppress contaminating respiratory flora (CRF)” value in [1] is “best choice for suppression of CRF”.
`CC1(C)S[C@@H]2[C@H](NC(=O)[C@H](NC(=O)N3CCNC3=O)c3ccccc3)C(=O)N2[C@H]1C(=O)O` [AZL, azlocillin]: the “Average TTD” value with M. intracellulare 13950 (Table 4, Media + AZL 12) is given as 16.4 days; in the test on M. intracellulare 13950 (Table 4, Media + AZL 24), 19.8 days; with M. intracellulare 13950 (Table 4, Media + AZL 48), 20.0 days; in the test on M. avium 25291 (Table 4, Media + AZL 12) it was 20.1 days; with M. avium 25291 (Table 4, Media + AZL 24), 22.2 days; in the test on M. avium 25291 (Table 4, Media + AZL 48), 21.2 days. Further, the “Average TTD” value in the test on MTB 25177 (Table 4, Media + AZL 12) is listed as 22.4 days; in the test with MTB 25177 (Table 4, Media + AZL 24), 23.8 days; with MTB 25177 (Table 4, Media + AZL 48), 24.8 days; with M. scrofulaceum 19981 (Table 4, Media + AZL 12) it was 24.2 days; with M. scrofulaceum 19981 (Table 4, Media + AZL 48), 21.7 days; in the test on MTB 27294 (Table 4, Media + AZL 12) it was 15.4 days. The “Average TTD” value was determined as 16.0 days in the test with MTB 27294 (Table 4, Media + AZL 24); 15.4 days in the test on MTB 27294 (Table 4, Media + AZL 48); 18.5 days in the test on M. kansasii 12478 (Table 4, Media + AZL 12); 18.9 days with M. kansasii 12478 (Table 4, Media + AZL 24); 20.5 days with M. kansasii 12478 (Table 4, Media + AZL 48); 4.0 days in the test with M. fortuitum 6841 (Table 4, Media + AZL 12). Further, the “Average TTD” value in the test on M. fortuitum 6841 (Table 4, Media + AZL 24) is reported as 4.2 days; with M. fortuitum 6841 (Table 4, Media + AZL 48) it was 4.1 days. The “# Positive” value in the test with M. intracellulare 13950 (Table 4, Media + AZL 12) is given as 4.0; in the test with M. intracellulare 13950 (Table 4, Media + AZL 24), 4.0; with M. intracellulare 13950 (Table 4, Media + AZL 48), 2.0; in the test with M. avium 25291 (Table 4, Media + AZL 12) it was 4.0; in the test on M. avium 25291 (Table 4, Media + AZL 24), 4.0; in the test on M. avium 25291 (Table 4, Media + AZL 48), 4.0. Also, the “# Positive” value in the test on MTB 25177 (Table 4, Media + AZL 12) was 4.0; with MTB 25177 (Table 4, Media + AZL 24), 2.0; in the test with MTB 25177 (Table 4, Media + AZL 48), 2.0; with M. scrofulaceum 19981 (Table 4, Media + AZL 12, of 4.0 tested) it was 2.0; with M. scrofulaceum 19981 (Table 4, Media + AZL 48, of 3.0 tested), 1.0; with MTB 27294 (Table 4, Media + AZL 12) it was 4.0. Also, the “# Positive” value came out at 4.0 with MTB 27294 (Table 4, Media + AZL 24); 4.0 with MTB 27294 (Table 4, Media + AZL 48); 3.0 with M. kansasii 12478 (Table 4, Media + AZL 12); 4.0 in the test on M. kansasii 12478 (Table 4, Media + AZL 24); 1.0 in the test with M. kansasii 12478 (Table 4, Media + AZL 48); 4.0 with M. fortuitum 6841 (Table 4, Media + AZL 12). In addition, the “# Positive” value came to 4.0 with M. fortuitum 6841 (Table 4, Media + AZL 24) and 4.0 with M. fortuitum 6841 (Table 4, Media + AZL 48). Besides, the “effect on growth (as determined by TTD of growth)” value with mycobacteria is recorded as “negative effect on the growth”.
For `O=C(O)CCC(=O)C(=O)O` [α-keto glutarate, α-ketoglutarate], the “Avg. TTD” value in the test with M. intracellulare 13950 was 9.0 days and 8.8 days; in the test with M. avium 25291, 13.5 days and 13.8 days; in the test on MTB 27294 it was 14.3 days and 13.9 days. Further, the No. of positives in the test with M. intracellulare 13950, in the test with M. avium 25291 and with MTB 27294 was 3 in each case. Further, the “reduction in time to detection (TTD) of growth” value in the test with mycobacteria is “approximate two days reduction”.
For the molecule `N=C(N)NCCC[C@H](N)C(=O)O` [L-arginine], in the test with mycobacteria, the “reduction in TTD” value was “did not show a reduction in TTD”.
As for `O=C(O)CC(=O)C(=O)O` [oxaloacetic acid], the “reduction in TTD” value with mycobacteria is given as “did not show a reduction in TTD”.
With `CC(O)C(=O)O` (centres unmarked) [lactate], the “reduction in TTD” value with mycobacteria is given as “did not show a reduction in TTD”.
